Reference: ChEMBL document CHEMBL1201862, “PubChem BioAssay data set” (2004)
The source made the active and inactive calls.

How the values were obtained:
[1] = biological target: T1, DNA repair protein RAD52 homolog (Homo sapiens, UniProt P43351); assay type: functional, biochemical
T1 sequence (P43351 whole entry): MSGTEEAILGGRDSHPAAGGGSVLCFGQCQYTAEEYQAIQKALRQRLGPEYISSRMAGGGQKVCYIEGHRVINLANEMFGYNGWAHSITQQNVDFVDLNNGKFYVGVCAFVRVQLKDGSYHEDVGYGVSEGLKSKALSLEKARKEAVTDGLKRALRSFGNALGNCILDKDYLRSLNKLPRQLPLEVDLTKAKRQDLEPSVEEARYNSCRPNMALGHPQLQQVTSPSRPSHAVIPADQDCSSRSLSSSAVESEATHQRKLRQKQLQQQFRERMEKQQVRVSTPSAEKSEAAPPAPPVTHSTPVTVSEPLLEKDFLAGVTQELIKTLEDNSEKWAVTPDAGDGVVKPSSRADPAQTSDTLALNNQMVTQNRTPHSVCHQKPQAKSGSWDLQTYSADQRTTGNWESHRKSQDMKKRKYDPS

[2] = tested on: Streptococcus sp. 'group A'; test: growth inhibition of control SK(-) GAS strain, dose response, counter-screen for streptokinase expression inhibitor project, luminescence, kanamycin, BacTiterGlo, confirmation (AID 1900); assay type: functional, organism-based
[3] = biological target: Serine/threonine-protein phosphatase (Homo sapiens, UniProt Q9BPW0); test: PP5 phosphatase inhibitors, dose response, biochemical, fluorescence (AID 2395)
Hexokinase HKDC1 = biological target: T2, Hexokinase HKDC1 (Homo sapiens, UniProt Q2TB90); test: HKDC1 hexokinase inhibitors, dose response, biochemical, W721R variant (AID 504729); assay type: functional
T2 sequence (Q2TB90 whole entry): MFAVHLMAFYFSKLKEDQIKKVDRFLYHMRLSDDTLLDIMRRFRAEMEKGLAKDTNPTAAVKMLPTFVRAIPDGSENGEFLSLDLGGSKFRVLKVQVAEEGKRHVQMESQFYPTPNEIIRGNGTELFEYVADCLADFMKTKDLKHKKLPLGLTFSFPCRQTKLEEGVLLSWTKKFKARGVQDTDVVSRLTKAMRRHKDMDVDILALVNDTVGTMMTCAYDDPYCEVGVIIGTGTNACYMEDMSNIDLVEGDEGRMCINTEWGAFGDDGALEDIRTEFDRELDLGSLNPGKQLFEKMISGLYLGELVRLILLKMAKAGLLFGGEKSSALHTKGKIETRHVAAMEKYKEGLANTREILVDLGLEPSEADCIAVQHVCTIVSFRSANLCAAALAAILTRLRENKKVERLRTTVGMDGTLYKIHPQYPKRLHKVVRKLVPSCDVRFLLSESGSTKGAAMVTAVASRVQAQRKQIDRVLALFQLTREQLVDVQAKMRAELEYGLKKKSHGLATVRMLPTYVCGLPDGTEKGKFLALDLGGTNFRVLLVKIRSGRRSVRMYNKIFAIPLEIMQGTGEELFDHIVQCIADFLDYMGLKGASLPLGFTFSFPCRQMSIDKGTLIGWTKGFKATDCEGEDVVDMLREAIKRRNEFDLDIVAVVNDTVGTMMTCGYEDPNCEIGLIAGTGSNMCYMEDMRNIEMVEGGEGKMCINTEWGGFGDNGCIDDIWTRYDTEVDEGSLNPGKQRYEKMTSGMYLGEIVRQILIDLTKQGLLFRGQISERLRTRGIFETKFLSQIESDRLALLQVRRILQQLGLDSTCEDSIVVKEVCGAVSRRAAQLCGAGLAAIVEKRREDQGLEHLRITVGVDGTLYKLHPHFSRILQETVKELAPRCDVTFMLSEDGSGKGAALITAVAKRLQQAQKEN

Streptococcus = test: Group A Streptococcus viability loss, dose response, counter-screen for streptokinase expression inhibitor project, luminescence, BacTiterGlo (AID 1915); assay type: functional, organism-based;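 note: potency for reduction of bacterial viability or growth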
[4] = biological target: Neurotensin receptor type 1 (Homo sapiens, UniProt P30989); assay type: functional;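 note: Image-based confirmatory dose-response assay measuring agonist activity at NTR1; NTR1-expressing U2OS osteosarcoma cells imaged for beta-arrestin GFP spot formation; agonist potency where compounds increase beta-arrestin recruitment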
Trypsin = Trypsin (Sus scrofa, UniProt P00761); test: porcine trypsin inhibitors, dose response, selectivity assay for Rce1 protease inhibitor project, biochemical, quenched peptide fluorescence, cherry-pick (AID 488789)
CAAX prenyl protease 1 = CAAX prenyl protease 1 (Saccharomyces cerevisiae S288c, UniProt P47154); test: Ste24 protease inhibitors, dose response, biochemical, S. cerevisiae, plate reader, cherry-pick (AID 488815)
[5] = cytotoxicity toward NIH3T3 fibroblasts, dose response, counter-screen, cell-based, ATP luminescence, mouse fibroblasts (AID 2010); assay type: functional;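 note: cells exposed to compound for about 90 hours before reading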

CAAX prenyl protease 1, sequence (P47154 whole entry): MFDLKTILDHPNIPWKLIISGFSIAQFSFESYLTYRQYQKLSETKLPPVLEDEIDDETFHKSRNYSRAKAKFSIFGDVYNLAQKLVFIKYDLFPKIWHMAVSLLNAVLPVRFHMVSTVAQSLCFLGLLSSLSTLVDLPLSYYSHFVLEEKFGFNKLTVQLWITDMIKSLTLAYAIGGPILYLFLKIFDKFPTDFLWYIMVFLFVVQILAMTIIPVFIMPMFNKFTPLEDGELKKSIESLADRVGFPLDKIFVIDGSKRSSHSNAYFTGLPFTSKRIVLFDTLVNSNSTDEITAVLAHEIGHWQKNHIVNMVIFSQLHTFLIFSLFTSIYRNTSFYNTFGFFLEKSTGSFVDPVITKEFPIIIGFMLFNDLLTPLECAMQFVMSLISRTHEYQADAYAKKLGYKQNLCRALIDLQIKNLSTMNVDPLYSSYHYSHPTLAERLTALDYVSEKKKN
Serine/threonine-protein phosphatase, sequence (Q9BPW0 whole entry): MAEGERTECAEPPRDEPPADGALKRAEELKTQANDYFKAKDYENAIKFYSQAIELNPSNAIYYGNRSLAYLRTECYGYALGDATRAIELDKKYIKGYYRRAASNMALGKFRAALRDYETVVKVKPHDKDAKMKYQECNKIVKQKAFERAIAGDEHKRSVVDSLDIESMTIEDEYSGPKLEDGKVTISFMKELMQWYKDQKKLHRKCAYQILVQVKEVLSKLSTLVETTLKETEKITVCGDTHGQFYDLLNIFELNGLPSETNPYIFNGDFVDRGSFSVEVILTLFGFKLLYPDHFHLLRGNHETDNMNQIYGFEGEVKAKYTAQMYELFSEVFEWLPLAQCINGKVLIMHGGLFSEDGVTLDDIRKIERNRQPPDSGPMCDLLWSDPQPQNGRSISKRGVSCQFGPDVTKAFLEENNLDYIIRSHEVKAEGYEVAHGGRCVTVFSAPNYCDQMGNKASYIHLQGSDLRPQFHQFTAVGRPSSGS
Neurotensin receptor type 1, sequence (P30989 whole entry): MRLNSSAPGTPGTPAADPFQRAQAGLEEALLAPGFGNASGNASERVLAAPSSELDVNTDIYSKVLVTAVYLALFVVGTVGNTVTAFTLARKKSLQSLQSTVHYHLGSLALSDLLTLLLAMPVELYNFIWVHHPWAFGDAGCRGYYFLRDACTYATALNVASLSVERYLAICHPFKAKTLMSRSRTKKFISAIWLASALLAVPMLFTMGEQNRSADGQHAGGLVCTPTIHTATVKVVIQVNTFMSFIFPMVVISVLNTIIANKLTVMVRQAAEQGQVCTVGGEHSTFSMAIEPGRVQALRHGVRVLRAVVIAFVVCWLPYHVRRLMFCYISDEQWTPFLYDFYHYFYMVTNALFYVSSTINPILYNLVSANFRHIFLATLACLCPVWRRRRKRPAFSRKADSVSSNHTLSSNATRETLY
Trypsin, sequence (P00761 whole entry): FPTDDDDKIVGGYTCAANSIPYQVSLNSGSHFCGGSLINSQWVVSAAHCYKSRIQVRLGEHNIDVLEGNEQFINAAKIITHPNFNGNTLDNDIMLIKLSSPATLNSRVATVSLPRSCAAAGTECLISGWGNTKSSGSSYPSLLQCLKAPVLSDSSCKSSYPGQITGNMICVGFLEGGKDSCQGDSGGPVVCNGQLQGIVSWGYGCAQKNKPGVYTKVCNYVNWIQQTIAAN

COc1cc2c(cc1OC)-c1c(OC)c(OC)cc3c1C(C2)N(C)CC3 (centres undefined)
AC50 [1]: 2.14 µM (active)

CCc1ccc(S(=O)(=O)/N=C2\C=C(Nc3cccc(C(=O)O)c3)C(=O)c3ccccc32)cc1
EC50 [2]: 1.26 µM (active)
IC50 [3]: 6.85 µM (active)
IC50 (Hexokinase HKDC1): 4.78 µM (active)
EC50 (Streptococcus): 1.9 µM (active)

CCCCCCCCCCOC(=O)Cn1c(COc2cccc(OC)c2)[n+](C)c2ccccc21
EC50 [4]: 14.3 µM (active)
AC50 (Trypsin): 5.16 µM (active)
AC50 (CAAX prenyl protease 1): 2.11 µM (active)
EC50 [5]: > 60 µM (not active)
